Measured values as given in the NIST ThermoML archive (doi:10.1016/j.fluid.2006.10.012).

Assay: osmotic coefficient (dimensionless); mn = molality of the nth substance listed, in mol/kg
Conditions: Liquid, isopiestic method

NCC(=O)O [2-aminoacetic acid] + O
Conditions | osmotic coefficient
288.15 K, m1 = 0.2174 | 0.9554
288.15 K, m1 = 0.2178 | 0.9554
288.15 K, m1 = 0.3075 | 0.946
288.15 K, m1 = 0.3078 | 0.946
288.15 K, m1 = 0.5175 | 0.9341
288.15 K, m1 = 0.5178 | 0.934
288.15 K, m1 = 0.6241 | 0.9302
288.15 K, m1 = 0.6251 | 0.9302
288.15 K, m1 = 0.8647 | 0.9219
288.15 K, m1 = 0.8654 | 0.9219
288.15 K, m1 = 1.193 | 0.9166
288.15 K, m1 = 1.194 | 0.9166
293.15 K, m1 = 0.2074 | 0.9705
293.15 K, m1 = 0.2076 | 0.9705
293.15 K, m1 = 0.3572 | 0.9556
293.15 K, m1 = 0.3577 | 0.9555
293.15 K, m1 = 0.5277 | 0.9428
293.15 K, m1 = 0.5284 | 0.9428
293.15 K, m1 = 0.8498 | 0.9282
293.15 K, m1 = 0.8508 | 0.9282
293.15 K, m1 = 1.027 | 0.924
293.15 K, m1 = 1.028 | 0.924
293.15 K, m1 = 1.298 | 0.9202
293.15 K, m1 = 1.299 | 0.9202
298.15 K, m1 = 0.2274 | 0.9815
298.15 K, m1 = 0.2276 | 0.981
298.15 K, m1 = 0.3213 | 0.9767
298.15 K, m1 = 0.3214 | 0.9764
298.15 K, m1 = 0.5417 | 0.9583
298.15 K, m1 = 0.7869 | 0.9461
298.15 K, m1 = 0.7878 | 0.945
298.15 K, m1 = 0.8048 | 0.9442
298.15 K, m1 = 0.8059 | 0.9432
298.15 K, m1 = 1.139 | 0.9297
298.15 K, m1 = 1.14 | 0.9295
303.15 K, m1 = 0.203 | 0.9873
303.15 K, m1 = 0.2037 | 0.9872
303.15 K, m1 = 0.3379 | 0.9781
303.15 K, m1 = 0.3388 | 0.9781
303.15 K, m1 = 0.5346 | 0.966
303.15 K, m1 = 0.535 | 0.9659
303.15 K, m1 = 0.7489 | 0.9539
303.15 K, m1 = 0.7501 | 0.9538
303.15 K, m1 = 0.854 | 0.9483
303.15 K, m1 = 0.8547 | 0.9483
303.15 K, m1 = 1.044 | 0.9384
303.15 K, m1 = 1.045 | 0.9384

CCC(N)C(=O)O (stereo not drawn) [(.+-.)-α-aminobutyric acid] + O
Conditions | osmotic coefficient
288.15 K, m1 = 0.2191 | 0.9642
288.15 K, m1 = 0.2194 | 0.9642
288.15 K, m1 = 0.3053 | 0.9569
288.15 K, m1 = 0.3055 | 0.9569
288.15 K, m1 = 0.5076 | 0.9529
288.15 K, m1 = 0.5082 | 0.953
288.15 K, m1 = 0.595 | 0.9567
288.15 K, m1 = 0.596 | 0.9567
288.15 K, m1 = 0.7815 | 0.9748
288.15 K, m1 = 0.7821 | 0.9749
288.15 K, m1 = 1.057 | 1.025
288.15 K, m1 = 1.059 | 1.025
293.15 K, m1 = 0.2031 | 0.9894
293.15 K, m1 = 0.2034 | 0.9894
293.15 K, m1 = 0.3484 | 0.9811
293.15 K, m1 = 0.3492 | 0.9811
293.15 K, m1 = 0.508 | 0.9744
293.15 K, m1 = 0.5086 | 0.9744
293.15 K, m1 = 0.8066 | 0.9819
293.15 K, m1 = 0.8078 | 0.982
293.15 K, m1 = 0.9443 | 1.0001
293.15 K, m1 = 0.9453 | 1.0003
293.15 K, m1 = 1.139 | 1.048
293.15 K, m1 = 1.14 | 1.049
298.15 K, m1 = 0.2217 | 1.0067
298.15 K, m1 = 0.2219 | 1.0058
298.15 K, m1 = 0.3106 | 1.0103
298.15 K, m1 = 0.3109 | 1.0093
298.15 K, m1 = 0.5105 | 1.0168
298.15 K, m1 = 0.5108 | 1.0163
298.15 K, m1 = 0.5636 | 1.0164
298.15 K, m1 = 0.5637 | 1.0162
298.15 K, m1 = 0.7428 | 1.023
298.15 K, m1 = 0.7434 | 1.023
298.15 K, m1 = 1.022 | 1.036
298.15 K, m1 = 1.023 | 1.036
303.15 K, m1 = 0.2054 | 1.0072
303.15 K, m1 = 0.206 | 1.0073
303.15 K, m1 = 0.3334 | 1.0133
303.15 K, m1 = 0.3335 | 1.0133
303.15 K, m1 = 0.5083 | 1.0187
303.15 K, m1 = 0.5087 | 1.0187
303.15 K, m1 = 0.7146 | 1.025
303.15 K, m1 = 0.7157 | 1.025
303.15 K, m1 = 0.8091 | 1.029
303.15 K, m1 = 0.8092 | 1.029
303.15 K, m1 = 1.03 | 1.046
303.15 K, m1 = 1.031 | 1.046

CC(N)C(=O)O (stereo not drawn) [DL-2-aminopropanoic acid] + O
Conditions | osmotic coefficient
288.15 K, m1 = 0.2159 | 0.9497
288.15 K, m1 = 0.2163 | 0.9496
288.15 K, m1 = 0.3062 | 0.944
288.15 K, m1 = 0.3066 | 0.944
288.15 K, m1 = 0.5085 | 0.9513
288.15 K, m1 = 0.5093 | 0.9514
288.15 K, m1 = 0.6031 | 0.9603
288.15 K, m1 = 0.6037 | 0.9603
288.15 K, m1 = 0.8076 | 0.9837
288.15 K, m1 = 0.8082 | 0.9838
288.15 K, m1 = 1.098 | 1.01
293.15 K, m1 = 0.2061 | 0.9725
293.15 K, m1 = 0.2068 | 0.9724
293.15 K, m1 = 0.3536 | 0.9656
293.15 K, m1 = 0.354 | 0.9656
293.15 K, m1 = 0.5134 | 0.9677
293.15 K, m1 = 0.5145 | 0.9677
293.15 K, m1 = 0.8192 | 0.9905
293.15 K, m1 = 0.8199 | 0.9905
293.15 K, m1 = 0.9719 | 1.007
293.15 K, m1 = 0.9725 | 1.007
293.15 K, m1 = 1.185 | 1.029
293.15 K, m1 = 1.186 | 1.029
298.15 K, m1 = 0.2238 | 0.9972
298.15 K, m1 = 0.2243 | 0.9954
298.15 K, m1 = 0.3134 | 0.9976
298.15 K, m1 = 0.3135 | 0.9972
298.15 K, m1 = 0.52 | 0.9983
298.15 K, m1 = 0.5203 | 0.9977
298.15 K, m1 = 0.5759 | 0.9986
298.15 K, m1 = 0.5762 | 0.9982
298.15 K, m1 = 0.7604 | 0.9998
298.15 K, m1 = 0.7609 | 0.9991
298.15 K, m1 = 1.056 | 1
303.15 K, m1 = 0.207 | 1.004
303.15 K, m1 = 0.2076 | 1.004
303.15 K, m1 = 0.3362 | 1.004
303.15 K, m1 = 0.3364 | 1.004
303.15 K, m1 = 0.5119 | 1.004
303.15 K, m1 = 0.5129 | 1.004
303.15 K, m1 = 0.7159 | 1.006
303.15 K, m1 = 0.7166 | 1.006
303.15 K, m1 = 0.8218 | 1.01
303.15 K, m1 = 0.8221 | 1.01
303.15 K, m1 = 1.038 | 1.02
